Experimental data from patent US20180186742A1, “PICOLINAMIDES AS FUNGICIDES” (Dow AgroSciences LLC, priority 2017, published 2018).
Like-named read-outs stand apart in the source and are kept apart here.

Experiments:
Format in all cases: in vivo
Puccinia triticina = test: Wheat brown rust (PUCCRT), disease control on wheat seedlings; settings: for pest or weed control at 100 ppm: high volume application at 100 ppm; for pest or weed control at 121.5 g/ha: low volume application at 121.5 g/H
In short: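 Compounds in acetone, diluted with nine volumes of water containing 110 ppm Triton X-100, sprayed to run-off on first-leaf Yuma wheat seedlings; track-spray tests used EC formulations with 0.1% Trycol 5941. Puccinia triticina spores applied before or after treatment. Overnight dark dew room at 22° C, 100% humidity, then greenhouse at 24° C.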

Zymoseptoria tritici = test: Leaf blotch of wheat (SEPTTR), disease control on wheat seedlings; settings: for pest or weed control at 100 ppm: high volume application at 100 ppm; for pest or weed control at 121.5 g/ha: low volume application at 121.5 g/H
In short: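 Yuma wheat seedlings with the first leaf fully emerged were sprayed to run-off with compound in acetone plus nine volumes of water containing 110 ppm Triton X-100; track-spray tests used EC formulations with 0.1% Trycol 5941. Z. tritici inoculation came before or after treatment, followed by 100% RH dew periods and a 20 °C greenhouse. Percent control was calculated from severity versus untreated plants.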

Phakopsora pachyrhizi = test: Asian soybean rust (PHAKPA), disease control on soybean seedlings; settings: High volume application at 25 ppm
Experimental: Technical grades of materials were dissolved in acetone, which were then mixed with nine volumes of water containing 0.011% Tween 20. The fungicide solutions were applied onto soybean seedlings using an automated booth sprayer to run-off. All sprayed plants were allowed to air dry prior to further handling.
Soybean plants (variety Williams 82) were grown in soil-less Metro mix, with one plant per pot. Two week old seedlings were used for testing. Plants were inoculated either 3 days prior to or 1 day after fungicide treatments. Plants were incubated for 24 h in a dark dew room at 22° C. and 100% relative humidity then transferred to a growth room at 23° C. for disease to develop. Disease severity was assessed on the sprayed leaves.

[1] = 24 h, 1 Day Protectant, read-out: PUCCRT disease control, 1DP, LV activity
[2] = 72 h, 3 Day Curative, read-out: PUCCRT disease control, 3DC, LV activity
[3] = 24 h, 1 Day Protectant, read-out: SEPTTR disease control, 1DP, LV activity
[4] = 72 h, 3 Day Curative, read-out: SEPTTR disease control, 3DC, LV activity
[5] = 24 h, 1 Day Protectant, read-out: PHAKPA 1DP disease control rating
[6] = 72 h, 3 Day Curative, read-out: PHAKPA 3DC disease control rating
[7] = 24 h, 1 Day Protectant, wheat brown rust, read-out: PUCCRT 1DP disease control, LV activity
[8] = 72 h, 3 Day Curative, wheat brown rust, read-out: PUCCRT 3DC disease control, LV activity
[9] = 24 h, 1 Day Protectant, wheat leaf blotch, read-out: SEPTTR 1DP disease control, LV activity
[10] = 72 h, 3 Day Curative, wheat leaf blotch, read-out: SEPTTR 3DC disease control, LV activity

With `COc1cc[n+]([O-])c(C(=O)N[C@@H](C)C(=O)O[C@@H](C)[C@@H](c2ccc(C)cc2C)C2CCCC2)c1O` [Compound 212] the pest or weed control at 100 ppm (Puccinia triticina; 24 h, 1 Day Protectant, read-out: PUCCRT disease control, 1DP, HV activity) was > 80%, the pest or weed control at 121.5 g/ha (Puccinia triticina; [1]) was < 80% and the pest or weed control at 100 ppm (Puccinia triticina; 72 h, 3 Day Curative, read-out: PUCCRT disease control, 3DC, HV activity) was < 80%. The pest or weed control at 121.5 g/ha (Puccinia triticina; [2]) was < 0%, the pest or weed control at 100 ppm (Zymoseptoria tritici; 24 h, 1 Day Protectant, read-out: SEPTTR disease control, 1DP, HV activity) was < 80% and the pest or weed control at 121.5 g/ha (Zymoseptoria tritici; [3]) was < 0%. The pest or weed control at 100 ppm (Zymoseptoria tritici; 72 h, 3 Day Curative, read-out: SEPTTR disease control, 3DC, HV activity) was > 80%, the pest or weed control at 121.5 g/ha (Zymoseptoria tritici; [4]) was < 0% and the pest or weed control at 25 ppm (Phakopsora pachyrhizi; [5]) was < 80%. The pest or weed control at 25 ppm (Phakopsora pachyrhizi; [6]) was < 80%.

With `CCC(C)[C@H](c1ccc(C)cc1C)[C@H](C)OC(=O)[C@H](C)NC(=O)c1nccc(OC)c1OC(C)=O` (stereo partly shown) [Compound 203] the pest or weed control at 121.5 g/ha (Puccinia triticina; [1]) was < 80%, the pest or weed control at 121.5 g/ha (Puccinia triticina; [2]) was < 80% and the pest or weed control at 121.5 g/ha (Zymoseptoria tritici; [3]) was < 80%. For the same compound, the pest or weed control at 121.5 g/ha (Zymoseptoria tritici; [4]) was < 80%, the pest or weed control at 25 ppm (Phakopsora pachyrhizi; [5]) was > 80% and the pest or weed control at 25 ppm (Phakopsora pachyrhizi; [6]) was < 0%.

With `COc1cc(F)ccc1[C@@H](C1CCCC1)[C@H](C)OC(=O)[C@H](C)NC(=O)c1nccc(OC)c1OC(C)=O` [Compound 224] the pest or weed control at 121.5 g/ha (Puccinia triticina; [1]) was < 80%, the pest or weed control at 121.5 g/ha (Puccinia triticina; [2]) was < 80% and the pest or weed control at 121.5 g/ha (Zymoseptoria tritici; [3]) was < 80%. The pest or weed control at 121.5 g/ha (Zymoseptoria tritici; [4]) was < 0%, the pest or weed control at 25 ppm (Phakopsora pachyrhizi; [5]) was < 80% and the pest or weed control at 25 ppm (Phakopsora pachyrhizi; [6]) was < 0%.

In the case of `COc1ccnc(C(=O)N[C@@H](C)C(=O)O[C@@H](C)[C@@H](c2ccc(C)cc2C)C2CCCCC2)c1OC(C)=O` [Compound 202], the pest or weed control at 121.5 g/ha (Puccinia triticina; [1]) is reported as > 80%, the pest or weed control at 121.5 g/ha (Puccinia triticina; [2]) is reported as < 0% and the pest or weed control at 121.5 g/ha (Zymoseptoria tritici; [3]) is reported as < 80%. The pest or weed control at 121.5 g/ha (Zymoseptoria tritici; [4]) was < 80%, the pest or weed control at 25 ppm (Phakopsora pachyrhizi; [5]) was < 80% and the pest or weed control at 25 ppm (Phakopsora pachyrhizi; [6]) was < 0%.

For `COc1ccnc(C(=O)N[C@@H](C)C(=O)O[C@@H](C)[C@H](c2ccc(F)cc2C)C2CCC2)c1OCOC(C)=O` [Compound 197], the pest or weed control at 121.5 g/ha (Puccinia triticina; [1]) was > 80%, the pest or weed control at 121.5 g/ha (Puccinia triticina; [2]) was > 80% and the pest or weed control at 121.5 g/ha (Zymoseptoria tritici; [3]) was > 80%. For the same compound, the pest or weed control at 121.5 g/ha (Zymoseptoria tritici; [4]) was > 80%, the pest or weed control at 25 ppm (Phakopsora pachyrhizi; [5]) was > 80% and the pest or weed control at 25 ppm (Phakopsora pachyrhizi; [6]) was > 80%.

With `COc1ccnc(C(=O)N[C@@H](C)C(=O)O[C@@H](C)[C@H](c2ccc(OC(F)(F)F)cc2)C(C)C)c1OCOC(C)=O` [Compound 378] the pest or weed control at 121.5 g/ha (Puccinia triticina; [7]) was > 80%, the pest or weed control at 121.5 g/ha (Puccinia triticina; [8]) was > 80% and the pest or weed control at 121.5 g/ha (Zymoseptoria tritici; [9]) was > 80%. For the same compound, the pest or weed control at 121.5 g/ha (Zymoseptoria tritici; [10]) was > 80%, the pest or weed control at 25 ppm (Phakopsora pachyrhizi; [5]) was < 80% and the pest or weed control at 25 ppm (Phakopsora pachyrhizi; [6]) was < 80%.

In the case of `COc1ccnc(C(=O)N[C@@H](C)C(=O)O[C@@H](C)[C@H](c2ccc(Cl)cc2Cl)C(C)C)c1OC(C)=O` [Compound 367], the pest or weed control at 121.5 g/ha (Puccinia triticina; [7]) is reported as > 80%, the pest or weed control at 121.5 g/ha (Puccinia triticina; [8]) is reported as > 80% and the pest or weed control at 121.5 g/ha (Zymoseptoria tritici; [9]) is reported as > 80%. For the same compound, the pest or weed control at 121.5 g/ha (Zymoseptoria tritici; [10]) was < 80%, the pest or weed control at 25 ppm (Phakopsora pachyrhizi; [5]) was > 80% and the pest or weed control at 25 ppm (Phakopsora pachyrhizi; [6]) was > 80%.

`COc1ccnc(C(=O)N[C@@H](C)C(=O)O[C@@H](C)[C@H](c2ccccc2F)C(C)C)c1OC(C)=O` [Compound 360] was tested, and the pest or weed control at 121.5 g/ha (Puccinia triticina; [1]) was > 80%, the pest or weed control at 121.5 g/ha (Puccinia triticina; [2]) was > 80% and the pest or weed control at 121.5 g/ha (Zymoseptoria tritici; [3]) was < 80%. The pest or weed control at 121.5 g/ha (Zymoseptoria tritici; [4]) was > 80%, the pest or weed control at 25 ppm (Phakopsora pachyrhizi; [5]) was > 80% and the pest or weed control at 25 ppm (Phakopsora pachyrhizi; [6]) was > 80%.

With `COc1ccnc(C(=O)N[C@@H](C)C(=O)O[C@@H](C)[C@@H](c2ccc(C)cc2C)C(C)C)c1OC(C)=O` [Compound 200] the pest or weed control at 121.5 g/ha (Puccinia triticina; [1]) was < 80%, the pest or weed control at 121.5 g/ha (Puccinia triticina; [2]) was < 80% and the pest or weed control at 121.5 g/ha (Zymoseptoria tritici; [3]) was < 0%. For the same compound, the pest or weed control at 121.5 g/ha (Zymoseptoria tritici; [4]) was < 80%, the pest or weed control at 25 ppm (Phakopsora pachyrhizi; [5]) was < 80% and the pest or weed control at 25 ppm (Phakopsora pachyrhizi; [6]) was < 0%.

With `COc1ccnc(C(=O)N[C@@H](C)C(=O)O[C@@H](C)[C@H](c2ccc(F)cc2C)C2CCC2)c1OC(C)=O` [Compound 189] the pest or weed control at 121.5 g/ha (Puccinia triticina; [1]) was > 80%, the pest or weed control at 121.5 g/ha (Puccinia triticina; [2]) was < 80% and the pest or weed control at 121.5 g/ha (Zymoseptoria tritici; [3]) was > 80%. For the same compound, the pest or weed control at 121.5 g/ha (Zymoseptoria tritici; [4]) was > 80%, the pest or weed control at 25 ppm (Phakopsora pachyrhizi; [5]) was > 80% and the pest or weed control at 25 ppm (Phakopsora pachyrhizi; [6]) was < 80%.

In the case of `COCCC(=O)Oc1c(OC)ccnc1C(=O)N[C@@H](C)C(=O)O[C@@H](C)[C@H](c1ccc(F)cc1OC)C(C)C` [Compound 239], the pest or weed control at 121.5 g/ha (Puccinia triticina; [1]) is reported as > 80%, the pest or weed control at 121.5 g/ha (Puccinia triticina; [2]) is reported as > 80% and the pest or weed control at 121.5 g/ha (Zymoseptoria tritici; [3]) is reported as > 80%. For the same compound, the pest or weed control at 121.5 g/ha (Zymoseptoria tritici; [4]) was < 80%, the pest or weed control at 25 ppm (Phakopsora pachyrhizi; [5]) was > 80% and the pest or weed control at 25 ppm (Phakopsora pachyrhizi; [6]) was > 80%.
